Source: article PMC5430744 (Scientific Reports, 2017)
Read-outs that look alike come from different tables or passages of the source.

What was measured:
[1] = biological target: T1, Smon0121-Smon0122(10xHis)/Smon0120-Smon0120 (Streptobacillus moniliformis, UniProt D1AWD7); details: detergent-solubilised transporter
T1 construct: gene Smon_0120

Smon0123 = Smon0123 (Streptobacillus moniliformis, UniProt D1AWE0); test: X-ray crystal structure; tryptophan fluorescence titration; DSF; type: binding; parameters: gene Smon_0123; Smon0123 (N-18/C-5) in the crystal; recombinant Smon0123 in solution
Sequence of Smon0123 (D1AWE0 entry or part of it): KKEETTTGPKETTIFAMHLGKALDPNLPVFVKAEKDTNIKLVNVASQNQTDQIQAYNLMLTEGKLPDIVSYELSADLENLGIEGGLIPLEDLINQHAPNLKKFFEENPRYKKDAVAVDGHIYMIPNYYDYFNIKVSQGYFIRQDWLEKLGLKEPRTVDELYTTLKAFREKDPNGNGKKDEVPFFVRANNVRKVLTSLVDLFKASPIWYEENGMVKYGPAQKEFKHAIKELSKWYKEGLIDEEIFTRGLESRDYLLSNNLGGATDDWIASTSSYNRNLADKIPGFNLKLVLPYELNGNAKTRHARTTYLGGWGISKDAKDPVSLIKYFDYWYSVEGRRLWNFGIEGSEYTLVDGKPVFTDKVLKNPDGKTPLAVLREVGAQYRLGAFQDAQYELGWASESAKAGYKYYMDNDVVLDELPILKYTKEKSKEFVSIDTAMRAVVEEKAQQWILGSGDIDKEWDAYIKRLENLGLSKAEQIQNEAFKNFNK

Smon0127 = biological target: T2, Smon0127 (Streptobacillus moniliformis, UniProt D1AWE4); test: UGL enzyme assay, decrease of absorbance at […] nm; type: biochemical
T2 construct: gene Smon_0127; recombinant Smon0127
T2 sequence (D1AWE4 entry or part of it): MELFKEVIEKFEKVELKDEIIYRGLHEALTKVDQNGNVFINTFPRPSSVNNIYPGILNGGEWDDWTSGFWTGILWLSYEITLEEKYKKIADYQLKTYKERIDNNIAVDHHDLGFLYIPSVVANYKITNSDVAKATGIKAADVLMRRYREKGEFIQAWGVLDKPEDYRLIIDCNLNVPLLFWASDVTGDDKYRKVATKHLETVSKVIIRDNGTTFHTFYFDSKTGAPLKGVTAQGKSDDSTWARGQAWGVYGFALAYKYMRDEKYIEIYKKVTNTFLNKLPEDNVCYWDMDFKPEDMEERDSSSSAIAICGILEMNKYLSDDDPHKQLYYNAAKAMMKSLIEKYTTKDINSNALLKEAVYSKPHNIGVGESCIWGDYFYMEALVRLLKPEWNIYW

T1 sequence (D1AWD7 entry or part of it): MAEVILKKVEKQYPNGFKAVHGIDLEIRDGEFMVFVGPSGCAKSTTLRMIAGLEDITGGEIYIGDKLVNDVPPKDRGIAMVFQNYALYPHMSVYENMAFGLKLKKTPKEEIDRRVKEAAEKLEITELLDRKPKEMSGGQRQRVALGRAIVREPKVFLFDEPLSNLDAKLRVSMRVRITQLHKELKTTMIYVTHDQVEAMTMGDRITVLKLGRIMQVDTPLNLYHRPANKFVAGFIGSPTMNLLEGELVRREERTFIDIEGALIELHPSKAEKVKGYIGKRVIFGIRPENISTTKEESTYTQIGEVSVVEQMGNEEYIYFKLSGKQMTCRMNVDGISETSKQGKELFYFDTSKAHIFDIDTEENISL
T1 sequence (D1AWD8 entry or part of it, further chain): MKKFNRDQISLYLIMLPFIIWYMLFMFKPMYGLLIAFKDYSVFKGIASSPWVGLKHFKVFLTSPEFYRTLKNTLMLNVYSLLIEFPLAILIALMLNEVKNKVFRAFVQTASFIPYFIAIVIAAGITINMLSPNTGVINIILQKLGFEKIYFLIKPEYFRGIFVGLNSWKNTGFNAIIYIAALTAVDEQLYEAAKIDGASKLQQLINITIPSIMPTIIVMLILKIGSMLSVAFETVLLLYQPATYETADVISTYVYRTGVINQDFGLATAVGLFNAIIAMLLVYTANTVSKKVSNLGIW
T1 sequence (D1AWD9 entry or part of it, further chain): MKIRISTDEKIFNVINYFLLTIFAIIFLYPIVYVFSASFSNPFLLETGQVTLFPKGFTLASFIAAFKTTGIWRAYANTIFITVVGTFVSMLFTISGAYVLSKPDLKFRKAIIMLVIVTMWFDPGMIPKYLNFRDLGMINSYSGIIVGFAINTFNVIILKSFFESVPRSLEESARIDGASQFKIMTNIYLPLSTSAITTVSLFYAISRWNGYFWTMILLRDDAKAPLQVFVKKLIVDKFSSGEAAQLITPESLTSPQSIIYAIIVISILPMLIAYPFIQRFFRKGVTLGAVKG

Row | Compound | phosphate release from ATP [1] | Kd (Smon0123; read-out: Kd) [nM] | UGL enzyme assay, decrease of absorbance at 235 nm (Smon0127) [units/mg] | Kd (Smon0123)
1 | Nc1ncnc2c1ncn2[C@@H]1O[C@H](COP(=O)(O)OP(=O)(O)OP(=O)(O)O)[C@@H](O)[C@H]1O [ATP] | in the soluble form with detergents exhibited ATPase activity | – | – | –
2 | CC(=O)N[C@H]1C(O)O[C@H](CO)[C@H](O)[C@@H]1O[C@@H]1OC(C(=O)O)=C[C@H](O)[C@H]1O (stereo partly shown) [CΔ0S] | – | 635 ± 122 | 4.46 | –
3 | CC(=O)N[C@H]1C(O)O[C@H](CO)[C@H](OS(=O)(=O)O)[C@@H]1O[C@@H]1OC(C(=O)O)=C[C@H](O)[C@H]1O (stereo partly shown) [CΔ4S] | – | – | 0.342 | –
4 | CC(=O)N[C@H]1C(O)O[C@H](COS(=O)(=O)O)[C@H](O)[C@@H]1O[C@@H]1OC(C(=O)O)=C[C@H](O)[C@H]1O (stereo partly shown) [CΔ6S] | – | – | 0.272 | 5GX6 for Smon0123/C∆4S, 5GX7 for Smon0123/C∆6S
5 | CC(=O)N[C@H]1C(O)O[C@H](CO)[C@@H](O)[C@@H]1O[C@@H]1OC(C(=O)O)=C[C@H](O)[C@H]1O (stereo partly shown) [ΔHA] | – | – | 2.26 | –
